Entries after “also recorded” stand apart in the source; their conditions may differ.
Legend:
tumor cells = assay: Apoptosis of tumor cells in culture; assay type: cell-based
glioblastoma multiforma = assay: Clinical use, intravenous infusion in advanced recurrent glioblastoma multiforma; assay type: in vivo, human; settings: 20 g i.v. over 6 hours twice a week, at least one 5 week regimen
Protocol: Four patients, which were diagnosed with advanced recurrent glioblastoma multiforma, were treated with taurolidine. The prognosis for this group of patients was determined to be approximately 8 weeks of survival.

[1] = system: TNF; interleukins 1, 6, and 10; VEGF; TGF; assay: Angiogenesis factors in patients with metastatic colon cancer; assay type: in vivo, human; settings: taurolidine-treated subjects compared to placebo
Protocol: Patients with metastatic colon cancer were treated with taurolidine and several factors controlling angiogenesis were measured.

[2] = system: aerobic and anaerobic bacterial strains; settings: depending on the bacterial strain evaluated; cited from earlier work
[3] = system: normal murine bone marrow cultures; assay: Cytotoxic and apoptotic activity in normal primary cells; assay type: cell-based
From the text: This observation was confirmed using normal (non-tumor) primary cells derived from animals, which are known to be free of tumors.

[4] = system: SKOV-3 human ovarian tumor xenografts; assay: Therapeutic effectiveness against i.p. human ovarian tumor xenografts; assay type: in vivo, female nude mice
From the text: Fourteen days following the final Taurolidine injection, mice in all groups were sacrificed and the peritoneal cavity examined for the presence of tumors. Each experimental was repeated three times and the pooled number of animals in each group ranged from 15–21.
Fourteen days following the final Taurolidine injection, mice in all groups were sacrificed, i.p. ovarian tumor xenografts removed and tumor weighed. Each experiment was repeated three times and the pooled number of animals in each group ranged from 15–21. Each bar represents the mean (±SE) tumor weight of 15–21 animals. ***p≦0.001, ****p≦0.0001.
(§1) Studies to assess in vivo toxicity and therapeutic effectiveness were carried out in 6–12 week old female homozygous athymic (Hsd:athymic nude nu/nu) mice obtained from Harlan (Indianapolis, Ind.).
To evaluate therapeutic effectiveness, mice received a single intraperitoneal injection of 5×10^6 SKOV-3 cells in a volume of 0.5 ml. Immediately thereafter, mice were randomly divided into treatment groups of 7 animals. […] Control animals received 1 ml injections of 5% Kollidon 17PF alone. Animals were examined daily and body weight recorded twice weekly. […] The mean tumor weight for each treatment group was calculated and statistical analysis of differences in the mean tumor weight between treatment groups employed the Student's t-test. p-values of ≦0.05 were considered significant.

PA1 human ovarian cells = assay: Cell cycle kinetics and DNA fragmentation after 24-hour exposure; assay type: cell-based
From the text: (§2) This DNA fragmentation was not observed in normal 3T3 cells.

3T3 cells = assay: as above; assay type: cell-based
From the text: as §2

[5] = system: MDR-transfected glioblastoma cells; assay: Cytotoxicity to drug resistant tumor cells
From the text: Glioblastoma cells were transfected with a gene encoding multiple drug resistance (MDR).

[6] = Clinical tolerability (i.p. lavage in recurrent ovarian tumors, systemic in glioblastoma); assay type: in vivo, human; settings: i.p. lavage after surgery (ovarian) or systemic (glioblastoma)
Protocol: Taurolidine was administered by i.p. lavage immediately following surgery for removal of recurrent ovarian tumors. For patients with glioblastoma, Taurolidine was administered systemically.

NIH-3T3 [7] = assay: Western-blot analysis of PARP cleavage; assay type: cell-based, murine; settings: 24 h exposure to 50 or 100 μM
Protocol: (§3) Two×10^6 cells were seeded in 150 cm^2 tissue culture flasks. […] After an additional twenty-four hours, cells were harvested, cell number determined, and aliquots derived from equal cell numbers generated from each exposure condition. Total proteins from these whole cell lysates were separated by SDS-PAGE and transferred to nitrocellulose filters. Filters were then immunoblotted to detect intact PARP protein and cleavage fragments by using the clone C-2-10 mouse monoclonal anti-PARP antibody (Zymed Laboratories, San Francisco, Calif.). The resulting protein-antibody complexes were visualized by chemiluminescence techniques.
(§4) Western-blot analysis was used to assess of PARP cleavage. Two×10^6 cells were seeded into separate 75 cm^2 tissue culture flasks containing 20 ml of tissue culture media plus serum. […] Twenty-four hours after the addition of Taurolidine, cells were harvested, cell number determined, and aliquots containing an equal cell number were generated from each exposure condition. Total proteins from whole cell lysates generated from these aliquots were separated by SDS-PAGE and electrotransferred to nitrocellulose filters. Filters were then processed to detect intact PARP protein and cleavage fragments by using the clone C-2-10 mouse monoclonal anti-PARP antibody (Zymed Laboratories, San Francisco, Calif.). […]

[8] = Taurolidine-induced toxicity, 3 consecutive daily i.p. bolus injections; assay type: in vivo
Protocol: as §1
Control animals received 1 ml injections of 5% Kollidon 17PF alone. Animals were examined daily and body weight recorded twice weekly. A reduction in body weight of greater than 10% was considered significant. The maximally tolerated dose (MTD) was considered to be the dose which produced ˜10% mortality.
During the injection regimen, and daily thereafter for 30 d, mice were weighed and examined. Experiments were repeated a minimum of three times and mortality and weight loss data pooled.

NIH-3T3 [9] = assay: Cell cycle distribution and sub-G0/G1 DNA debris by flow cytometry (propidium iodide); assay type: cell-based, murine; settings: 48 h exposure
Protocol: (§5) Three×10^5 cells were seeded in plastic tissue culture flasks. […] Control cultures received an appropriate volume of Kollidine-17P. […] The percentage of DNA debris in the sub-G0/G1 region was assessed using cytofluorometric techniques. Each bar represents the mean (±SE) of three determinations. **p≦0.01, ***p≦0.001, ****p≦0.0001
(§6) For flow cytometry studies, 1×10^6 PA-1, SKOV-3, or NIH-3T3 cells were incubated for 24 h in appropriate media containing serum. […] Control cultures for each cell line were incubated in media containing 40 μl of 5% Kollidon 17PF alone. Forty-eight hours later, all cells were harvested by trypsinization and prepared for cytofluorometric analysis by standard methods. For example, harvested cells were resuspended in ice cold phosphate-buffered saline at a final cell density of 2×10^6 cells/ml. The cells then were stained for 30 min at room temperature in the dark with a solution of 0.05 mg/ml propidium iodide, 0.6% Igepal, and 1% sodium citrate. Flow cytometry was performed by FACScan (Becton Dickinson, Plymouth, England) using the ModFit LT program (Becton Dickinson). […]
(§7) Three×10^5 cells were seeded in plastic tissue culture flasks. […] After an additional 48 h, cells were harvested, stained with propidium iodide, and cell cycle distribution assessed using cytofluorometric techniques. […]

[10] = system: HL-60 human promyelocytic cell line; assay: Apoptosis induction in non-adherent cancer cell model; assay type: cell-based
[11] = system: human ovarian tumor cells; assay: Growth of established tumor cell colonies in vitro; assay type: cell-based; settings: 24-hour exposure to 50 μM
Protocol: (§8) Parallel studies were carried out to assess whether disruption of cell adhesion played a role in the cytotoxic activity.

PA-1 [12] = assay: Cell cycle distribution and sub-G0/G1 DNA debris by flow cytometry (propidium iodide); assay type: cell-based, human
Protocol: Three×10^5 cells were seeded in plastic tissue culture flasks. […] Control cultures received an appropriate volume of Kollidine-17P. […] The percentage of DNA debris in the sub-G0/G1 region was assessed using cytofluorometric techniques.
For flow cytometry studies, 1×10^6 PA-1, SKOV-3, or NIH-3T3 cells were incubated for 24 h in appropriate media containing serum. […] Control cultures for each cell line were incubated in media containing 40 μl of 5% Kollidon 17PF alone. Forty-eight hours later, all cells were harvested by trypsinization and prepared for cytofluorometric analysis by standard methods. For example, harvested cells were resuspended in ice cold phosphate-buffered saline at a final cell density of 2×10^6 cells/ml. The cells then were stained for 30 min at room temperature in the dark with a solution of 0.05 mg/ml propidium iodide, 0.6% Igepal, and 1% sodium citrate. Flow cytometry was performed by FACScan (Becton Dickinson, Plymouth, England) using the ModFit LT program (Becton Dickinson). Statistical analysis was performed with the Kruskal Wallis non-parametric ANOVA test followed by Dunn's multiple comparisons test using Instat.
as §7

PA-1 [13] = assay: Western-blot analysis of PARP cleavage; assay type: cell-based, human; settings: 24 h exposure to 50 or 100 μM
Protocol: as §3, §4

SKOV-3 [14] = assay: Western-blot analysis of PARP cleavage; assay type: cell-based, human; settings: 24 h exposure to 50 or 100 μM
Protocol: as §3, §4

SKOV-3 [15] = assay: Cell cycle distribution and sub-G0/G1 DNA debris by flow cytometry (propidium iodide); assay type: cell-based, human; settings: 48 h exposure
Protocol: as §5, §6, §7

[16] = system: panel of human and murine neoplastic cell lines; assay: Cell growth inhibition across the cell line panel; assay type: cell-based; settings: 72 h, 3 d exposure; panel of human and murine tumor cell lines; read-out: IC50s, range over all cell lines evaluated
Protocol: Included in the tumor cell line panel were ovarian tumor cells (PA-1 and SKOV-3), colon tumor cells (HCT-8, HCT-15 and HT-29), lung tumor cells (H-157, A-549 and H-596), prostate tumor cells (DU-145), glioma cells (U-251), and melanoma (MNT-1). The murine melanoma B16F10 cell line was also tested. These cell lines readily available, e.g., from the American Type Culture Collection (ATCC). Cells were cultured in appropriate growth medium at 37° C. in a humidified incubator in an atmosphere of 5% CO2. Under these growth conditions, the doubling time of all cell lines was 20–28 h.
One ml of this cell suspension was added to each well of a 12 well cell culture plate that contained 3 ml of appropriate media plus serum. […] Control wells received 40 μl of 5% Kollidon 17PF alone. Seventy-two hours later, all cells were harvested by trypsinization and cell number determined electronically using a Coulter Model Z1 particle counter (Coulter Corp., Miami, Fla.) to assess cell growth inhibition. Each experiment was performed in duplicate and repeated a minimum of three times.
Cells were seeded at a density of 1–5×10^4 cells in each well of a 6 well tissue culture flask. […] After three days, cells were harvested by trypsinization and cell number determined electronically. Cell growth inhibition was determined by comparison to non-Taurolidine exposed control cultures. […]

human cancer cell lines = assay: In vitro cytotoxic activity survey of human cancer cell lines; assay type: cell-based
Protocol: as §8

## O=S1(=O)CCN(CN2CCS(=O)(=O)NC2)CN1 [Taurolidine, Bis-(1,1-dioxoperhydro-1,2,4-thiadiazinyl-4)methane]
Tumor cells
  incubation time after which apoptosis is induced: one
Glioblastoma multiforma
  patients in whom the tumor mass decreased or stayed the same: 3 out of the 4
[1]
  factors controlling the growth of blood vessels (TNF; interleukins 1, 6, 10; VEGF; TGF): decreased
[2]
  minimum concentration required to inhibit bacterial cell growth (MIC): 10 to 1000 µg/mL
[3]
  concentration required to inhibit cell proliferation: concentrations in the mM range were required to inhibit cell proliferation
[4]; 3 d 20 mg/mouse regimen initiated on the day of tumor cell injection
  tumor formation, ascites development and growth: highly effective and inhibited tumor formation
[4]; single cycle initiated 5 d after tumor cell injection (established i.p. tumors)
  tumor growth inhibition: capable of significantly inhibiting tumor growth
[4]; therapy delayed for up to 3 d after tumor cell injection
  mean tumor size in treated mice versus controls: significantly smaller than in controls
PA1 human ovarian cells; PA1
  cell cycle kinetics: significantly reduced the percentage of cells in both the S- and G2/M-phases
PA1 human ovarian cells; human ovarian tumor cells, 50 μM, flow cytometry and agarose-gel electrophoresis
  DNA fragmentation: induced a high degree of DNA fragmentation; also recorded: overt DNA fragmentation
3T3 cells
  cell cycle kinetics: significantly reduced the percentage of cells in both the S- and G2/M-phases
3T3 cells; 50 μM, flow cytometry and agarose-gel electrophoresis
  DNA fragmentation: not observed; also recorded: not apparent
[5]; MDR-transfected glioblastoma cells, 50 μM
  cytotoxicity: Significant cytotoxicity
[6]
  tolerability in patients: well tolerated
NIH-3T3 [7]
  PARP cleavage: little evidence of this proteolytic event
NIH-3T3 [7]; listed as taurolidine
  PARP cleavage: PARP cleavage was not evident
[8]; 10 mg/mouse/inj i.p. on 3 consecutive days
  mortality (%): 6%
[8]; 20 mg/mouse/inj i.p. on 3 consecutive days
  mortality (%): 13%
[8]; 25 mg/mouse/inj i.p. on 3 consecutive days
  mortality (%): 47%
[8]; 30 mg/mouse/inj i.p. on 3 consecutive days
  mortality (%): 100%
[8]; mouse, in vivo, ip
  maximally tolerated dose (MTD): 20 mg/mouse
NIH-3T3 [9]
  DNA debris in the sub-G0/G1 region: did not increase DNA debris in sub-G0/G1 region; also recorded: did not significantly affect the appearance of DNA debris
  effect on cell cycle distribution (in words): decreased the percentage of cells in G0/G1 and increased the percentage of cells in S in a concentration-dependent manner
[10]; HL-60
  exposure time that induces apoptosis: ≤ 90 min
[10]; non-adherent cancer cell models
  apoptosis pathway events: activation of caspases 3, 8 and 9
[11]
  cytotoxic effect against the growth of established tumor cells: significant cytotoxic effect
PA-1 [12]; 48 h exposure to up to 100 μM
  effect on cell cycle distribution (in words): little effect on cell cycle distribution
PA-1 [12]; 48 h exposure, concentration-dependent
  DNA debris in the sub-G0/G1 region: significantly increased DNA debris in the sub-G0/G1 region; also recorded: appearance of DNA debris in the sub-G0G1 region
PA-1 [13]
  PARP cleavage: induced PARP cleavage; also recorded: resulted in PARP cleavage
SKOV-3 [14]
  PARP cleavage: induced PARP cleavage; also recorded: resulted in PARP cleavage
SKOV-3 [15]
  effect on cell cycle distribution (in words): concentration-dependent decrease in the percentage of cells in G0/G1 but increased the percentage of cells in both the S-phase and G2/M
SKOV-3 [15]; concentration-dependent
  DNA debris in the sub-G0/G1 region: significantly increased DNA debris in the sub-G0/G1 region; also recorded: appearance of DNA debris in the sub-G0G1 region
[16]
  IC50: 9.6 to 34.2 µM

## COc1cccc2c1C(=O)c1c(O)c3c(c(O)c1C2=O)C[C@@](O)(C(=O)CO)C[C@@H]3O[C@H]1C[C@H](N)[C@H](O)[C@H](C)O1 [adriamycin]
[5]; MDR-transfected versus untransfected glioblastoma cells
  resistance of transfected cells to standard chemotherapeutic agents: 100–1000 times

## O=S1(=O)CCNCN1 [taurultam]
Human cancer cell lines; cancer cells versus normal control cells
  induction of apoptotic death: induced apoptotic death of cancer cells but not normal control cells
Human cancer cell lines; same human cancer cell lines as for taurolidine
  cytotoxic activity relative to taurolidine: approximately 75%

— patent US6995164B2, “Methods of treating tumors” (Rhode Island Hospital, priority 1999, dated 2006)
